Here are results for 2 compounds from patent US20200253877A1, “GEMCABENE, PHARMACEUTICALLY ACCEPTABLE SALTS THEREOF, COMPOSITIONS THEREOF AND METHODS OF USE THEREFOR” (NEUROBO PHARMACEUTICALS, INC., priority 2018, published 2020).

Data set [1] is described as follows: Tablet dissolution in pH 5.0 potassium acetate, USP apparatus 2, UV/Vis fiber optic quantitation (216 nm to 230 nm). It counts as physicochemical. The following applies: film-coated Tablets D, F2, C3, ES (average n=6). How it is done:
Tablet's gemcabene dissolution profiles were evaluated using an ultra-violet/visible (uv/vis) light absorption methodology in which dissolved gemcabene in the dissolution media was directly measured inside the dissolution vessel. This method of analysis allowed for real-time measurement of gemcabene dissolution at multiple, closely spaced sampling intervals. This method provides a higher resolution dissolution profile than could be obtained with the HPLC analysis methodology used in Example 13 and allowed for detection of differences in dissolution characteristics between the various gemcabene calcium polymorphs. […] FIG. 56 compares the gemcabene dissolution profiles generated using these two methodologies and Table 28 reports the gemcabene dissolution profiles and % RSD for n=6 dissolution testing conducted with both methods of analysis.

Data set [2] in a line: Steady-state gemcabene pharmacokinetics in familial hypercholesterolemia patients (300, 600, 900 mg/day). It is filed as in vivo, human. Conditions: for Tlast: after 28 daily oral doses (film-coated Tablet D), FH patients, median. The protocol:
Additional (trough) samples were collected pre-dose on Day 14, Day 42, Day 70, and at the Early Termination Visit (if applicable). Plasma from these samples were analyzed for gemcabene concentrations and the data used for PK analysis. […] PK parameter estimates were derived by standard non-compartmental analysis methods using a validated installation of Phoenix® WinNonlin® version 6.4. The actual sampling times were used in the PK parameter calculations. All plasma concentrations reported as missing were treated as missing. […] The following gemcabene PK parameters were calculated for each patient from the plasma concentration-time data: AUClast and AUC(0-24) were calculated by numeric integration using the trapezoidal rule with linear up and log down interpolation. […] The individual patient and gemcabene concentration-time data are listed using the number of significant digits or decimal places provided by the bioanalytical lab and nominal sample times, and summarized descriptively in tabular formats by dose level, and visit (for trough samples).

The mark [3] stands for this setting: 300-900 mg/day, dose proportionality.
[4] abbreviates: dose range 300 mg/day to 900 mg/day.

`CC(C)(CCCCOCCCCC(C)(C)C(=O)O)C(=O)O.[Ca]` [6-(5-Carboxy-5-methyl-hexyloxy)-2,2-dimethylhexanoic acid calcium]: the “gemcabene dissolution rate of film-coated tablets, compared among polymorphs” value in data set [1] was “intermediate profile”.
Take `CC(C)(CCCCOCCCCC(C)(C)C(=O)O)C(=O)O` [gemcabene, 6-(5-carboxy-5-methyl-hexyloxy)-2,2-dimethyl-hexanoic acid]: the Tlast in data set [2] (300 mg/day, n = 8) is 25.2 h. In data set [2] (600 mg/day, n = 8), this compound gave a Tlast of 24.6 h. This compound came in with a Tlast in data set [2] (900 mg/day, n = 7) of 23.8 h. Also, in data set [2] (setting [3]), the “upper limit of the 95% CI of slope, log AUClast vs log dose” value was 0.9993 and the “upper limit of the 95% CI of slope, log Cmax vs log dose” value turned out to be 0.9767. Besides, the “time to attain steady state” value in data set [2] (daily dosing, individual trough concentrations) is on record as at most 14 days. Further, in data set [2] (setting [4]), the “AUC(0-24) dose proportionality” value is “increased dose proportionally” and the Cmax dose proportionality entry was “slightly less than dose proportional”.
